Measured values as given in patent US20100010057A1, “THIAZOLE DERIVATIVES AS INHIBITORS OF P13 KINASE” (CHROMA THERAPEUTICS LTD., priority 2006, published 2010).

What was measured:
[1] = target: PI3Kγ (human) (Homo sapiens, UniProt P48736); test: Inhibition of PI3 kinase γ activity (HTRF); type: biochemical; details: ATP at or close to Km, IC50 range, read-out: Inhibitor activity versus PI3 Kinase γ
Method: (B) Inhibition of PI3 Kinase V Activity
In a final reaction volume of 20 μl, PI3Kγ (human) is incubated in assay buffer containing 10 μM phosphatidylinositol-4,5-bisphosphate and MgATP (concentration as required). The reaction is initiated by the addition of the MgATP mix. After incubation for 30 minutes at room temperature, the reaction is stopped by the addition of 5 μl of stop solution containing EDTA and biotinylated phosphatidylinositol-3,4,5-trisphosphate. Finally, 5 μl of detection buffer is added, which contains europium-labelled anti-GST monoclonal antibody, GST-tagged GRP1 PH domain and streptavidin-allophycocyanin. The plate is then read in time-resolved fluorescence mode and the homogenous time-resolved fluorescence (HTRF) signal is determined according to the formula HTRF=10000×(Em665 nm/Em620 nm).
Duplicate data points are generated from a ⅓ log dilution series of a stock solution of compound in DMSO. Nine dilutions steps are made from a top concentration of 10 μM, and a ‘no compound’ blank is included. The HTRF PI 3-Kinase assay is performed at an ATP concentration at, or close to, the Km. HTRF ratio data is transformed into % activity of controls and analysed with a four parameter sigmoidal dose-response (variable slope) application. QC criteria is based on Top, Bottom, Hill slope, r^2 and IC50, the concentration giving 50% inhibition, which is reported.
(§1) For each of the assays (B), (C) and (D) above, IC50 values are allocated to one of three ranges as follows: […]

[2] = system: THP-1 cells; test: LPS-stimulation of THP-1 cells, TNF-α release; type: cell-based; details: Homo sapiens, LPS 1 μg/ml, 6 h, TNF-α by ELISA, IC50 range, read-out: Inhibitor activity versus THP-1 TNFα release
Method: (C) LPS-Stimulation of THP-1 Cells
THP-1 cells are plated in 100 μl at a density of 4×10^4 cells/well in V-bottomed 96 well tissue culture treated plates and incubated at 37° C. in 5% CO2 for 16 h. 2 h after the addition of the inhibitor in 100 μl of tissue culture media, the cells are stimulated with LPS (E. coli strain 005:B5, Sigma) at a final concentration of 1 μg/ml and incubated at 37° C. in 5% CO2 for 6 h. TNF-α levels are measured from cell-free supernatants by sandwich ELISA (R&D Systems #QTA00B)
as §1

PI3Kγ (human), sequence (P48736 whole entry): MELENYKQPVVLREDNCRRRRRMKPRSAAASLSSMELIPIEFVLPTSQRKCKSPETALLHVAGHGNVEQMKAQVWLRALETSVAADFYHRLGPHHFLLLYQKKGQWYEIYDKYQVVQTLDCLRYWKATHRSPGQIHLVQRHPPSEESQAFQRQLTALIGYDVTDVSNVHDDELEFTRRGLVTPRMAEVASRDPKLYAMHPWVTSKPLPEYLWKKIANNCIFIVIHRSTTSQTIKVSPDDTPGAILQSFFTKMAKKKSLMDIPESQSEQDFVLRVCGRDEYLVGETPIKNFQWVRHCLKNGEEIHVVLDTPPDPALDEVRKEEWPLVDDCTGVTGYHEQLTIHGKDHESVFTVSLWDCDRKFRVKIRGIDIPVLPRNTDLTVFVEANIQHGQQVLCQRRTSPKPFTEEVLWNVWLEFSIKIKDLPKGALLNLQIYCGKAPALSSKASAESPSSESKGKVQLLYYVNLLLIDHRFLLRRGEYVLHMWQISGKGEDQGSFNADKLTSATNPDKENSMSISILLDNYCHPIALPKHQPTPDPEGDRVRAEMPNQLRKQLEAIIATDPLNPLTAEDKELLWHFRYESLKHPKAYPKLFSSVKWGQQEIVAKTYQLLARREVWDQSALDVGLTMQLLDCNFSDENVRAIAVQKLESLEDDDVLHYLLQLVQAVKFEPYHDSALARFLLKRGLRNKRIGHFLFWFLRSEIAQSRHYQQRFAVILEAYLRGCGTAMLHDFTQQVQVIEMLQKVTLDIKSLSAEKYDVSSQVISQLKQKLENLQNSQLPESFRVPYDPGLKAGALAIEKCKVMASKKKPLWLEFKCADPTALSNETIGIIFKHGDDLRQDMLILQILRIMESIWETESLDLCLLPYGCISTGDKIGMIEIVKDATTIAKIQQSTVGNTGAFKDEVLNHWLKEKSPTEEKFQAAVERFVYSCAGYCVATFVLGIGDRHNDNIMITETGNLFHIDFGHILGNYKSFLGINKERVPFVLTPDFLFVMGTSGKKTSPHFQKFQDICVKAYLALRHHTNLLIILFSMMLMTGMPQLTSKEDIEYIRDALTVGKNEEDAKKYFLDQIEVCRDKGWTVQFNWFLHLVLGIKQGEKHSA

| SMILES | IC50 [1] [nM] | IC50 [2] [nM] |
| --- | --- | --- |
| Cc1nc(NC(=O)N[C@@H](COC(C)(C)C)C(=O)OC2CCCC2)sc1-c1ccc(Cl)c(S(C)(=O)=O)c1 [Example 4, Cyclopentyl O-tert-butyl-N-({5-[4-chloro-3-(methylsulfonyl)phenyl]-4-methyl-1,3-thiazol-2-yl}carbamoyl)-L-serinate] | 100 to 1000 | > 1000 |
| Cc1nc(NC(=O)CCCN[C@@H](CCC(=O)O)C(=O)OC2CCCC2)sc1-c1ccc(Cl)c(S(C)(=O)=O)c1 [Example 8, (4S)-4-{[4-({5-[4-Chloro-3-(methylsulfonyl)phenyl]-4-methyl-1,3-thiazol-2-yl}amino)-4-oxobutyl]amino}-5-(cyclopentyloxy)-5-oxopentanoic acid] | 100 to 1000 |  |
| Cc1nc(NC(=O)CCCN[C@@H](C(=O)OC2CCCC2)c2ccccc2)sc1-c1ccc(Cl)c(S(C)(=O)=O)c1 [Example 9, Cyclopentyl (2R)-{[4-({5-[4-chloro-3-(methylsulfonyl)phenyl]-4-methyl-1,3-thiazol-2-yl}amino)-4-oxobutyl]amino}(phenyl)acetate] | 100 to 1000 | > 1000 |
| Cc1nc(NC(=O)CCCN[C@H](C(=O)OC2CCCC2)c2ccccc2)sc1-c1ccc(Cl)c(S(C)(=O)=O)c1 [Example 10, Cyclopentyl (2S)-{[4-({5-[4-chloro-3-(methylsulfonyl)phenyl]-4-methyl-1,3-thiazol-2-yl}amino)-4-oxobutyl]amino}(phenyl)acetate] | 100 to 1000 | > 1000 |
| Cc1nc(NC(=O)CCCN[C@@H](Cc2ccccc2)C(=O)OC2CCCC2)sc1-c1ccc(Cl)c(S(C)(=O)=O)c1 [Example 11, Cyclopentyl N-[4-({5-[4-chloro-3-(methylsulfonyl)phenyl]-4-methyl-1,3-thiazol-2-yl}amino)-4-oxobutyl]-L-phenylalaninate] | > 1000 | > 1000 |
| Cc1nc(NC(=O)CCCN[C@@H](COC(C)(C)C)C(=O)OC2CCCC2)sc1-c1ccc(Cl)c(S(C)(=O)=O)c1 [Example 12, Cyclopentyl O-tert-butyl-N-[4-({5-[4-chloro-3-(methylsulfonyl)phenyl]-4-methyl-1,3-thiazol-2-yl}amino)-4-oxobutyl]-L-serinate] | > 1000 | > 1000 |
| Cc1nc(NC(=O)CCCN[C@H](C(=O)OC2CCCC2)C2CCCCC2)sc1-c1ccc(Cl)c(S(C)(=O)=O)c1 [Example 13, Cyclopentyl (2S)-{[4-({5-[4-chloro-3-(methylsulfonyl)phenyl]-4-methyl-1,3-thiazol-2-yl}amino)-4-oxobutyl]amino}(cyclohexyl)acetate] | > 1000 | > 1000 |
| Cc1nc(NC(=O)CCCN[C@@H](CC(C)C)C(=O)OC(C)(C)C)sc1-c1ccc(Cl)c(S(C)(=O)=O)c1 [Example 14, tert-Butyl N-[4-({5-[4-chloro-3-(methylsulfonyl)phenyl]-4-methyl-1,3-thiazol-2-yl}amino)-4-oxobutyl]-L-leucinate] | > 1000 | > 1000 |
| Cc1nc(NC(=O)CCCN[C@@H](COC(C)(C)C)C(=O)OC(C)(C)C)sc1-c1ccc(Cl)c(S(C)(=O)=O)c1 [Example 15, tert-Butyl O-tert-butyl-N-[4-({5-[4-chloro-3-(methylsulfonyl)phenyl]-4-methyl-1,3-thiazol-2-yl}amino)-4-oxobutyl]-L-serinate] | > 1000 | > 1000 |
| Cc1nc(NC(=O)CCN[C@@H](C)C(=O)OC2CCCC2)sc1-c1ccc(Cl)c(S(C)(=O)=O)c1 [Example 16, Cyclopentyl N-[3-({5-[4-chloro-3-(methylsulfonyl)phenyl]-4-methyl-1,3-thiazol-2-yl}amino)-3-oxopropyl]-L-alaninate] | > 1000 | 100 to 1000 |
| Cc1nc(NC(=O)N[C@@H](COC(C)(C)C)C(=O)O)sc1-c1ccc(Cl)c(S(C)(=O)=O)c1 [Example 30, O-tert-Butyl-N-({5-[4-chloro-3-(methylsulfonyl)phenyl]-4-methyl-1,3-thiazol-2-yl}carbamoyl)-L-serine] | > 1000 |  |
| Cc1nc(NC(=O)N[C@@H](Cc2ccccc2)C(=O)O)sc1-c1ccc(Cl)c(S(C)(=O)=O)c1 [Example 31, N-({5-[4-Chloro-3-(methylsulfonyl)phenyl]-4-methyl-1,3-thiazol-2-yl}carbamoyl)-L-phenylalanine] | > 1000 |  |
| Cc1nc(NC(=O)CCCN[C@@H](CC(C)C)C(=O)O)sc1-c1ccc(Cl)c(S(C)(=O)=O)c1 [Example 32, N-4-({5-[4-Chloro-3-(methylsulfonyl)phenyl-4-methyl-1,3-thiazol-2-yl}amino)-4-oxobutyl]-L-leucine] | > 1000 |  |
| Cc1nc(NC(=O)CCCN[C@@H](CCC(=O)O)C(=O)O)sc1-c1ccc(Cl)c(S(C)(=O)=O)c1 [Example 33, N-[4-({5-[4-Chloro-3-(methylsulfonyl)phenyl]-4-methyl-1,3-thiazol-2-yl}amino)-4-oxobutyl]-L-glutamic acid] | > 1000 |  |
| Cc1nc(NC(=O)CCCN[C@@H](C(=O)O)c2ccccc2)sc1-c1ccc(Cl)c(S(C)(=O)=O)c1 [Example 34, (2R)-{[4-({5-[4-Chloro-3-(methylsulfonyl)phenyl]-4-methyl-1,3-thiazol-2-yl}amino)-4-oxobutyl]amino}(phenyl)acetic acid] | > 1000 |  |
| Cc1nc(NC(=O)CCCN[C@H](C(=O)O)c2ccccc2)sc1-c1ccc(Cl)c(S(C)(=O)=O)c1 [Example 35, (2S)-{[4-({5-[4-Chloro-3-(methylsulfonyl)phenyl]-4-methyl-1,3-thiazol-2-yl}amino)-4-oxobutyl]amino}(phenyl)acetic acid] | > 1000 |  |
| Cc1nc(NC(=O)CCCN[C@@H](Cc2ccccc2)C(=O)O)sc1-c1ccc(Cl)c(S(C)(=O)=O)c1 [Example 36, N-[4-({5-[4-Chloro-3-(methylsulfonyl)phenyl]-4-methyl-1,3-thiazol-2-yl}amino)-4-oxobutyl]-L-phenylalanine] | > 1000 |  |
| Cc1nc(NC(=O)CCCN[C@@H](COC(C)(C)C)C(=O)O)sc1-c1ccc(Cl)c(S(C)(=O)=O)c1 [Example 37, O-tert-Butyl-N-[4-({5-[4-chloro-3-(methylsulfonyl)phenyl]-4-methyl-1,3-thiazol-2-yl}amino)-4-oxobutyl]-L-serine] | > 1000 |  |
| Cc1nc(NC(=O)CCN[C@@H](C)C(=O)O)sc1-c1ccc(Cl)c(S(C)(=O)=O)c1 [Example 38, N-[3-({5-[4-Chloro-3-(methylsulfonyl)phenyl]-4-methyl-1,3-thiazol-2-yl}amino)-3-oxopropyl]-L-alanine] | > 1000 |  |
| Cc1nc(NCCCN[C@@H](CC(C)C)C(=O)O)sc1-c1ccc(Cl)c(S(C)(=O)=O)c1 [Example 39, N-[3-({5-[4-Chloro-3-(methylsulfonyl)phenyl]-4-methyl-1,3-thiazol-2-yl}amino)propyl]-L-leucine] | > 1000 |  |
| Cc1nc(NCC2CCC(N[C@@H](CC(C)C)C(=O)O)CC2)sc1-c1ccc(Cl)c(S(C)(=O)=O)c1 (stereo partly drawn) [Example 40, N-{4-[({5-[4-Chloro-3-(methylsulfonyl)phenyl]-4-methyl-1,3-thiazol-2-yl}amino)methyl]cyclohexyl}-L-leucine] | > 1000 |  |
| CC(=O)Nc1nc(C)c(-c2ccc(Cl)c(S(=O)(=O)N[C@@H](C)C(=O)O)c2)s1 [Example 41, N-{[5-(2-Acetamido-4-methyl-1,3-thiazol-5-yl)-2-chlorophenyl]sulfonyl}-L-alanine] | > 1000 |  |
| CC(=O)Nc1nc(C)c(-c2ccc(Cl)c(S(=O)(=O)N[C@@H](COC(C)(C)C)C(=O)O)c2)s1 [Example 42, N-{[5-(2-Acetamido-4-methyl-1,3-thiazol-5-yl)-2-chlorophenyl]sulfonyl}-O-tert-butyl-L-serine] | > 1000 |  |
| CC(=O)Nc1nc(C)c(-c2ccc(Cl)c(S(=O)(=O)NCCN[C@@H](CC(C)C)C(=O)O)c2)s1 [Example 43, N-[2-({[5-(2-Acetamido-4-methyl-1,3-thiazol-5-yl)-2-chlorophenyl]sulfonyl}amino)ethyl]-L-leucine] | > 1000 |  |
| CC(=O)Nc1nc(C)c(-c2ccc(Cl)c(S(=O)(=O)N[C@@H](CO)C(=O)O)c2)s1 [Example 44, N-{[5-(2-Acetamido-4-methyl-1,3-thiazol-5-yl)-2-chlorophenyl]sulfonyl}-L-serine] | > 1000 |  |
| Cc1nc(NC(=O)CCCN[C@@H](CO)C(=O)O)sc1-c1ccc(Cl)c(S(C)(=O)=O)c1 [Example 45, N-[4-({5-[4-Chloro-3-(methylsulfonyl)phenyl]-4-methyl-1,3-thiazol-2-yl}amino)-4-oxobutyl]-L-serine] | > 1000 |  |
